What was measured:
DYRK2 = target: T1, DYRK2 (Homo sapiens, UniProt Q92630); assay: HTS ATP-utilizing enzyme assay, off-chip mobility-shift (Caliper HTS 250); type: biochemical; conditions: test compound 10 μM, kinase listed = active (greater than six-sigma from the mean activity of inactive compounds)
T1 sequence (Q92630 1-601): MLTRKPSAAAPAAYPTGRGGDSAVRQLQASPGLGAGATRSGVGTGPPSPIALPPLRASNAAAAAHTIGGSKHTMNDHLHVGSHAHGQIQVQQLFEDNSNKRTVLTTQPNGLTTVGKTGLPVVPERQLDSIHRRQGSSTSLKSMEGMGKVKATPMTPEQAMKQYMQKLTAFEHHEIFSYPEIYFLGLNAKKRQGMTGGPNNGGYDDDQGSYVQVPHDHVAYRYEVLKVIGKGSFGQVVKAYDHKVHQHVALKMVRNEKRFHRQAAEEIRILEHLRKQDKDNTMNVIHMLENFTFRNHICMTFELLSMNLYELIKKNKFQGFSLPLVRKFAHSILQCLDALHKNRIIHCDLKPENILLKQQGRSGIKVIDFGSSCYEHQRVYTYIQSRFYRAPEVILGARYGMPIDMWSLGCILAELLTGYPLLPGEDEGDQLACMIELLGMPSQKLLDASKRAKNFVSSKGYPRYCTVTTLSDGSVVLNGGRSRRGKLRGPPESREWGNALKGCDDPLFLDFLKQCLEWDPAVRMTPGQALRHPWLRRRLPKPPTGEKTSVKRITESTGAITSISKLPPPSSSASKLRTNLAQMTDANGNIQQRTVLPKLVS
Summary of the method: (§1)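 Steps: compound added at 10 μM final; enzyme then peptide substrate added in HEPES pH 7.5, Triton X-100, BSA buffer; incubation 2.5 hrs at 20° C. to 22° C.; EDTA quench; microfluidic separation of substrate and phosphoproduct. DMSO wells set 0% inhibition, EDTA wells 100%.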

NEK2 = target: T2, NEK2 (Homo sapiens, UniProt P51955); assay: as above; type: biochemical; conditions: test compound 10 μM, kinase listed = active (greater than six-sigma from the mean activity of inactive compounds)
T2 sequence (P51955 1-445): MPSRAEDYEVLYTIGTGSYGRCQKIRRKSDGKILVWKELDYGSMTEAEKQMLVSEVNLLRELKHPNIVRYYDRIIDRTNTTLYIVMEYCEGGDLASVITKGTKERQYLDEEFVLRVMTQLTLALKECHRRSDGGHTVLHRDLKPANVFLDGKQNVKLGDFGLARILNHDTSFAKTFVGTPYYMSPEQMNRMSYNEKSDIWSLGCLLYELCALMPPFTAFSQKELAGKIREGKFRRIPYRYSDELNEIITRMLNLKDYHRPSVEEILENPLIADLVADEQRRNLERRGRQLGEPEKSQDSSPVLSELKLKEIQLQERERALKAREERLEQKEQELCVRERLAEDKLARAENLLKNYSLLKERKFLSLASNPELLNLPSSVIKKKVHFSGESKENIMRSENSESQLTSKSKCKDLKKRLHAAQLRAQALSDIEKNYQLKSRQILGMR
Summary of the method: as §1

SMILES	Activity (DYRK2)	Activity (NEK2)
CN1CCN(c2ccc(Nc3ccnc4ccc(-c5ccc(O)cc5)cc34)cc2)CC1 [4-(4-(4-(4-methylpiperazin-1-yl)phenylamino)quinolin-6-yl)phenol]	DYRK2	–
COc1ccc(-c2ccc3nccc(N(C)c4ccc(N5CCN(C)CC5)cc4)c3c2)cc1 [6-(4-methoxyphenyl)-N-methyl-N-(4-(4-methylpiperazin-1-yl)phenyl)quinolin-4-amine]	DYRK2	–
CN1CCN(c2ccc(Nc3ccnc4ccc(-c5ccc(F)cc5)cc34)cc2)CC1 [6-(4-fluorophenyl)-N-(4-(4-methylpiperazin-1-yl)phenyl)quinolin-4-amine]	DYRK2	NEK2
CN1CCN(c2ccc(Nc3ccnc4ccc(-c5cccc6ccccc56)cc34)cc2)CC1 [N-(4-(4-methylpiperazin-1-yl)phenyl)-6-(naphthalen-1-yl)quinolin-4-amine]	–	NEK2
CN1CCN(c2ccc(Nc3ccnc4ccc(-c5ccc6ccccc6c5)cc34)cc2)CC1 [N-(4-(4-methylpiperazin-1-yl)phenyl)-6-(naphthalen-2-yl)quinolin-4-amine]	DYRK2	NEK2
Cc1ccccc1-c1ccc2nccc(Nc3ccc(N4CCN(C)CC4)cc3)c2c1 [N-(4-(4-methylpiperazin-1-yl)phenyl)-6-o-tolylquinolin-4-amine]	DYRK2	NEK2
CN1CCN(c2ccc(Nc3ccnc4ccc(-c5ccncc5)cc34)cc2)CC1 [N-(4-(4-methylpiperazin-1-yl)phenyl)-6-(pyridin-4-yl)quinolin-4-amine]	DYRK2	NEK2
COc1ccc(-c2ccc3nccc(Nc4ccc(N5CCNCC5)cc4)c3c2)cc1 [6-(4-methoxyphenyl)-N-(4-(piperazin-1-yl)phenyl)quinolin-4-amine]	DYRK2	–
